Results as given in patent US5498522A, “Methods for the use of spermidine/spermine N^1 -acetyltransferase as a prognostic indicator and/or a tumor response marker” (priority 1993, dated 1996).
Several values for one entry are separate records, joined by “and”; a condition that tells them apart may be missing. Identical values can stand only once. Entries after “also recorded” stand apart in the source; their conditions may differ.

Assays:
MALME-3 melanoma cells = assay: N^1 -acetylspermidine in MALME-3 cell cultures; assay type: cell-based, human; details: MALME-3, 10 μm BESPM, 48 hours
Method: To illustrate this embodiment, LOX and MALME-3 cell cultures were treated for 48 hours with 10 μm BESPM. The cells from each culture were harvested and assayed for SSAT activity. Media samples were prepared by treating the samples with 50% trichloroacetic acid to give a final concentration of 10% and then centrifuged at 15,000×g for 10 minutes. The supernatant was then filtered through a 0.22-μm filter, extracted with several volumes of ether, lyophilized, and resuspended in 10% trichloroacetic acid. N^1 -acetylspermidine levels of cells and media samples were then measured by use of high-pressure liquid chromatography. […] Similarly, N^1 -acetylspermidine levels from MALME-3 control cells, media from control cell cultures, and treated MALME-3 cells contained minimal levels of N^1 -acetylspermidine.

[1] = system: SH-1 human melanoma cells; assay: growth of SH-1 melanoma cells in-vitro (FIG. 5); assay type: cell-based; details: SH-1, 10 μM BESPM, 48 hours
Method: (§1) As mentioned previously, cells from malignant solid tumor respond to polyamine analog therapy heterotypically. SSAT induction and antitumor response may vary not only among the solid tumor tissue type, but also with the clonal line of tumor of a particular solid tissue type. However, a correlation between the level of induction of SSAT and the potency of antitumor response has been observed in tumors of a particular solid tissue type. For example, seven human melanoma cell lines were assayed in-vitro for their response, as determined by cell growth and level of SSAT induction, to 10 μM BESPM at 48 hours post-treatment. As summarized in FIG. 5, growth among the cell lines decreases as SSAT induction increases.

[2] = system: MALME-3 human melanoma cells; assay: growth of MALME-3 melanoma cells in-vitro (FIG. 5); assay type: cell-based; details: MALME-3, 10 μM BESPM, 48 hours
Method: as §1

polyamine uptake = details: cited from earlier work
[3] = system: spermidine/spermine N^1 -acetyltransferase (SSAT); assay: SSAT induction in host tissue of treated mice; assay type: in vivo, mouse; details: spleen (PANUT-3 mice), 80 mg/kg
[4] = system: LOX human melanoma xenografts; assay: antitumor response against LOX human melanoma xenografts in mice; assay type: in vivo
Method: (§2) […] where 1 represents length; w--width; and h--height. Tumor sizes were monitored 2 times/week until the median volume (V=0.4(a^2 ×b) where a is the smaller of the two perpendicular tumor diameters). As an indication of drug toxicity, animal weights were also recorded at the time of tumor volume measurement. Statistical analyses were performed on mouse tumor size and weight parameters by using the Mann-Whitney test.
(§3) Tumor growth suppression was measured by plotting the mean tumor volume versus the number of days post-inoculation with polyamine analog (growth curve analyses). Suppression is determined by comparison with the growth of untreated tumors (%T/C). More specifically,: %T/C is (treated tumor volume minus pretreatment volume) divided by (control tumor volume minus pretreatment volume)×100. Typically this is measured either when the control tumor volume reaches 1000 mm^3, or at the last day of treatment.
(§4) Tumor regression is measured as a percentage representing the average percentage of decrease in tumor volume from the largest pretreatment volume value.
(§5) Repression of regrowth is represented as regrowth delay, determined as the number of days following cessation of treatment when median group tumor volume exceeds 200 mm^3 (an arbitrary indication of regrowth which was determined statistically).
For example, SSAT activity and potency of antitumor response was examined for LOX and MALME-3 melanoma xenografts in mice. Mice developing palpable tumors of a similar size were divided into different treatment groups comprising 7 mice per treatment group, and 7 control mice per treatment group. The treated mice received 40 mg/kg of BENSPM administered every 8 hours for a 5 day period. Melanoma tumor cells comprising the human xenografts were removed from two mice of each group at 16 hours following the final BENSPM injection to evaluate the level of induction of SSAT activity. The antitumor response from polyamine analog therapy was assessed in the five remaining mice from each group by monitoring the tumor volume of the xenografts over days following treatment as compared to untreated xenografts.
(§6) For example, human melanoma cell lines including MALME-3, SH-1, PANUT-3 and LOX were evaluated for the level of SSAT induction and potency of antitumor response following BENSPM treatment (80 mg/kg 3×/day×6 days) using the methodology previously described in this embodiment. […] The baseline of SSAT activity in the control mice (2 examined of 7 mice) ranged from 50 to 90 pmol/min/mg. […] Note that following BENSPM treatment (as discussed above in the context of Tables 4 and 5), suppression of tumor growth of PANUT-3, unlike suppression of MALME-3 growth, lasted for only about 12 days. Further, the levels of SSAT in PANUT-3 at two weeks post-treatment, approached the levels in the control and correlated with the loss of antitumor activity.

[5] = system: HT29 colon adenocarcinoma xenografts; assay: antitumor response against HT29 colon adenocarcinoma xenografts in mice; assay type: in vivo, human
Method: as §2, §3, §4, §5
Cells from malignant solid human tumor tissue types, other than melanoma, have also been evaluated for their responsiveness to polyamine analog treatment including clonal cell lines A121 (human ovarian adenocarcinoma),A549 (lung adenocarcinoma), and HT29 colon adenocarcinoma). These cell lines were evaluated for the level of SSAT induction and potency of antitumor response following BENSPM treatment (80 mg/kg 3×/day×6 days) in-vivo using the methodology previously described in this embodiment. Also, dose of BENSPM was compared (80 mg/kg versus 40 mg/kg). The baseline of SSAT activity in the control mice (2 of 7 mice) ranged from 40 to 90 pmol/min/mg. Tumor cells from the human xenografts A121, A549, and HT29 were removed from two mice of each treated group of seven mice containing the respective xenograft at 16 hours following the final BENSPM injection to evaluate the level of induction of SSAT activity. […] The response to the polyamine analog was heterotypic. […] As discussed previously, it is not known whether the heterotypic antitumor response may be due to either the individual properties of the clonal line or the particular solid tumor type.

[6] = system: human melanoma xenografts; assay: antitumor response, human melanoma xenografts, dose comparison and general; assay type: in vivo; details: MALME-3, SH-1, PANUT-3, LOX
Method: The in-vivo antitumor activities of BESPM, BEHSPM, and BENSPM, were compared against various human xenografts in nude athymic mice. Cultured human tumor cells were first passaged several times in female HSD nude athymic mice. Fragments of resultant tumor were implanted into mice via subcutaneous trocar implantation. Mice of different treatment groups were treated with one or more of the three bis-ethyl spermine analogs BESPM, BEHSPM, and BENSPM. Anti-proliferative activity was monitored by antitumor responses including tumor growth suppression, tumor regression, or repression of regrowth.
as §6

human tumor xenografts = assay: antitumor efficacy in-vivo (general statement); details: compared to other bis-ethyl spermine analogs
[7] = HT29, BENSPM 80 mg/kg 3x/d × 6d

For CCNCCCNCCCCNCCCNCC [BESPM, N^1,N^12-bis(ethyl)spermine], the “N^1 -acetylspermidine Intracellular” value (MALME-3 melanoma cells) was 0.1 nmol/culture, the “growth inhibition (FIG. 5)” value [1] was “least growth inhibition” and the “growth inhibition (FIG. 5)” value [2] was “greatest growth inhibition”. For the same molecule, the polyamine uptake (polyamine uptake) was “suppresses polyamine uptake”.
With CCNCCCNCCCNCCCNCC [BENSPM, N^1,N^11 -bis(ethyl)norspermine] the SSAT activity ([3]; 2 wks post-treatment) was 48/40, the SSAT activity ([3]; 16 hrs post-treatment) was 163/322 and the “tumor regression, regrowth delay, lack of regrowth (FIG. 6)” value ([4]; LOX xenograft, 40 mg/kg every 8 hours for 5 days) was “no significant tumor regression, regrowth delay, nor lack of regrowth”. For the same molecule, the “% T/C at 1 g” value ([4]; LOX, BENSPM at 80 mg/kg) was 40%, the “Tumor Regression” value ([4]; LOX, BENSPM at 80 mg/kg) was “None” and the “Regrowth Delay” value ([4]; LOX, BENSPM at 80 mg/kg, dt 5 days) was “None”. The “No Regrowth” value ([4]; LOX, BENSPM at 80 mg/kg, for duration of experiment) was 0/5, the “% T/C at 1 g” value [5, 7] was 24% and the “Tumor Regression” value [5, 7] was “no measurable tumor regression and None”. For the same molecule, the “Regrowth Delay” value ([5]; HT29, BENSPM 80 mg/kg 3x/d × 6d, dt 3.5 days) was “None”, the “No Regrowth” value ([5]; HT29, BENSPM 80 mg/kg 3x/d × 6d, for duration of experiment) was “two of five mice examined showed no regrowth and 2/5” and the growth rate ([5]; HT29 xenograft, 80 mg/kg 3×/day×6 days) was “reduced growth rate”. The “antitumor response at 40 mg/kg versus 80 mg/kg” value [6] was “very similar to the response at 80 mg/kg” and the “antitumor efficacy / activity, relative” value (human tumor xenografts) was “most potent antitumor efficacy; also recorded: most potent antitumor activity”.
